According to patent US9493446B2, “Orexin receptor antagonists which are [ortho bi-(hetero-)aryl]-[2-(meta bi-(hetero-)aryl)-pyrrolidin-1-yl]-methanone derivatives” (Actelion Pharmaceuticals Ltd, priority 2012, dated 2016):
pIC50: −log10 of the molar value. Like-named read-outs stand apart in the source and are kept apart here.

Experiments:
orexin-1 = orexin-1 (Homo sapiens (Human), UniProt O43613); assay: Intracellular calcium measurement (FLIPR), CHO cells expressing human orexin-1 receptor, 3 nM orexin-A; type: cell-based; details: read-out: IC50 OX1
In short: (§1)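 CHO cells stably expressing each receptor were loaded with 3 μM fluo-4 AM plus 5 mM probenecid for 50 min at 37 °C, then equilibrated 30 min at rt.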

human orexin-2 receptor = human orexin-2 receptor (Homo sapiens (Human), UniProt O43614); assay: Intracellular calcium measurement (FLIPR), CHO cells expressing human orexin-2 receptor, 3 nM orexin-A; type: cell-based; details: read-out: IC50 OX2
In short: as §1

[1] = CHO cells expressing human orexin-2 receptor, FLIPR, 3 nM orexin-A, geometric mean if determined several times
[2] = CHO cells expressing human orexin-1 receptor, FLIPR, 3 nM orexin-A, geometric mean if determined several times

Chain of orexin-1 (O43613 whole entry): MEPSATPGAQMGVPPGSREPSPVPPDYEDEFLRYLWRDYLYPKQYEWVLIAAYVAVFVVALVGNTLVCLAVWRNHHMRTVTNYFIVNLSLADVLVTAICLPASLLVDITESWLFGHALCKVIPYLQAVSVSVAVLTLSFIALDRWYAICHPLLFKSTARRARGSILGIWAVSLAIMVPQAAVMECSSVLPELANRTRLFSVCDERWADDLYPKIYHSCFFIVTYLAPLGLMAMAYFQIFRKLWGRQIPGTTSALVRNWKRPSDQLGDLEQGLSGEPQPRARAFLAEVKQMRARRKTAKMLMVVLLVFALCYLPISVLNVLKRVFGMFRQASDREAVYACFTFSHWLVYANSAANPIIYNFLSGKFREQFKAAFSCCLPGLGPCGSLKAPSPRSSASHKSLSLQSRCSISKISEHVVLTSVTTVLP
Chain of human orexin-2 receptor (O43614 whole entry): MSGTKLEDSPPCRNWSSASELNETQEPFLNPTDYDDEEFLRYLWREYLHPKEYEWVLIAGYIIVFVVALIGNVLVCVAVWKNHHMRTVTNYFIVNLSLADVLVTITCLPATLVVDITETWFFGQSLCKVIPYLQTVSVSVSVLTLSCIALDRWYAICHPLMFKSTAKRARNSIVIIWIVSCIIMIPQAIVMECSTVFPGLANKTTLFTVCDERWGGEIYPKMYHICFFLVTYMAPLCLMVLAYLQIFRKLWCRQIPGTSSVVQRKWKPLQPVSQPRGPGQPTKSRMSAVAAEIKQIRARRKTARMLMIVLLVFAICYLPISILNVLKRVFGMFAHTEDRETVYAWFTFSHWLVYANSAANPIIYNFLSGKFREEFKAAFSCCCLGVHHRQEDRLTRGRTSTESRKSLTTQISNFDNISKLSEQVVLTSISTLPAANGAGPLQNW

pIC50 (human orexin-2 receptor; [1])	pIC50 (orexin-1; [2])	SMILES	pIC50 (orexin-1)	pIC50 (human orexin-2 receptor)
8.40	7.89	Cc1ccc(-n2nccn2)c(C(=O)N2CCC[C@H]2c2noc(-c3ccccc3OC(F)(F)F)n2)c1 [Example 303, (5-Methyl-2-[1,2,3]triazol-2-yl-phenyl)-{(S)-2-[5-(2-trifluoromethoxy-phenyl)-[1,2,4]oxadiazol-3-yl]-pyrrolidin-1-yl}-methanone]	–	–
8.05	7.00	COc1ccc(C)cc1-c1nc([C@@H]2CCCN2C(=O)c2cc(C)ccc2-n2nccn2)no1 [compound 411, {(S)-2-[5-(2-Methoxy-5-methyl-phenyl)-[1,2,4]oxadiazol-3-yl]-pyrrolidin-1-yl}-(5-methyl-2-[1,2,3]triazol-2-yl-phenyl)-methanone]	–	–
7.34	6.67	Cc1ccc(-n2nccn2)c(C(=O)N2CCC[C@H]2c2nc(-c3cccc(C(F)(F)F)c3C)no2)c1 [compound 54, (5-Methyl-2-[1,2,3]triazol-2-yl-phenyl)-{(S)-2-[3-(2-methyl-3-trifluoromethyl-phenyl)-[1,2,4]oxadiazol-5-yl]-pyrrolidin-1-yl}-methanone]	–	–
7.34	6.77	CCOc1ncccc1-c1noc([C@@H]2CCCN2C(=O)c2nc(C)ccc2-n2nccn2)n1 [compound 213, {(S)-2-[3-(2-Ethoxy-pyridin-3-yl)-[1,2,4]oxadiazol-5-yl]-pyrrolidin-1-yl}-(6-methyl-3-[1,2,3]triazol-2-yl-pyridin-2-yl)-methanone]	–	–
7.82	7.26	COc1c(F)cccc1-c1nnc([C@@H]2CCCN2C(=O)c2ccc(C)cc2-n2nccn2)[nH]1 [compound 477, {(S)-2-[5-(3-Fluoro-2-methoxy-phenyl)-4H-[1,2,4]triazol-3-yl]-pyrrolidin-1-yl}-(4-methyl-2-[1,2,3]triazol-2-yl-phenyl)-methanone]	–	–
7.12	6.18	Cc1ccc(-n2nccn2)c(C(=O)N2CCC[C@H]2c2noc(-c3cnc4sccn34)n2)c1 [compound 313, [(S)-2-(5-Imidazo[2,1-b]thiazol-5-yl-[1,2,4]oxadiazol-3-yl)-pyrrolidin-1-yl]-(5-methyl-2-[1,2,3]triazol-2-yl-phenyl)-methanone]	–	–
7.03	7.17	CCOc1ncccc1-c1nnc([C@@H]2CCCN2C(=O)c2ccc(C)cc2-n2nccn2)[nH]1 [compound 482, {(S)-2-[5-(2-Ethoxy-pyridin-3-yl)-4H-[1,2,4]triazol-3-yl]-pyrrolidin-1-yl}-(4-methyl-2-[1,2,3]triazol-2-yl-phenyl)-methanone]	–	–
7.59	7.01	COc1c(F)cccc1-c1cc([C@@H]2CCCN2C(=O)c2cc(C)ccc2-n2nccn2)on1 [compound 429, {(S)-2-[3-(3-Fluoro-2-methoxy-phenyl)-isoxazol-5-yl]-pyrrolidin-1-yl}-(5-methyl-2-[1,2,3]triazol-2-yl-phenyl)-methanone]	–	–
7.08	6.62	O=C(c1ccccc1-c1ccccc1)N1CCC[C@H]1c1nnc(-c2ccccc2OC(F)(F)F)[nH]1 [compound 508, Biphenyl-2-yl-{(S)-2-[5-(2-trifluoromethoxy-phenyl)-4H-[1,2,4]triazol-3-yl]-pyrrolidin-1-yl}-methanone]	–	–
7.57	6.81	O=C(c1ccccc1-n1nccn1)N1CCC[C@H]1c1nnc(-c2ccccc2OC(F)(F)F)[nH]1 [compound 503, (2-[1,2,3]Triazol-2-yl-phenyl)-{(S)-2-[5-(2-trifluoromethoxy-phenyl)-4H-[1,2,4]triazol-3-yl]-pyrrolidin-1-yl}-methanone]	–	–
7.85	7.40	CCOc1ncccc1-c1noc([C@@H]2CCCN2C(=O)c2cc(C)ccc2-c2ccccn2)n1 [compound 217, {(S)-2-[3-(2-Ethoxy-pyridin-3-yl)-[1,2,4]oxadiazol-5-yl]-pyrrolidin-1-yl}-(5-methyl-2-pyridin-2-yl-phenyl)-methanone]	–	–
7.37	6.47	COc1c(F)cccc1-c1noc([C@@H]2CCCN2C(=O)c2ccc(C(F)(F)F)cc2-n2nccn2)n1 [compound 205, {(S)-2-[3-(3-Fluoro-2-methoxy-phenyl)-[1,2,4]oxadiazol-5-yl]-pyrrolidin-1-yl}-(2-[1,2,3]triazol-2-yl-4-trifluoromethyl-phenyl)-methanone]	–	–
8.70	7.60	COc1cc(C(=O)N2CCC[C@H]2c2noc(-c3cccc(C)c3C)n2)c(-n2nccn2)cc1C [compound 403, {(S)-2-[5-(2,3-Dimethyl-phenyl)-[1,2,4]oxadiazol-3-yl]-pyrrolidin-1-yl}-(5-methoxy-4-methyl-2-[1,2,3]triazol-2-yl-phenyl)-methanone]	–	–
6.93	6.31	Cc1ccc(-n2nccn2)c(C(=O)N2CCC[C@H]2c2ncc(-c3ccccc3C(F)(F)F)[nH]2)c1 [compound 528, (5-Methyl-2-[1,2,3]triazol-2-yl-phenyl)-{(S)-2-[5-(2-trifluoromethyl-phenyl)-1H-imidazol-2-yl]-pyrrolidin-1-yl}-methanone]	–	–
6.19	5.73	Cc1ccc(-n2nccn2)c(C(=O)N2CCC[C@H]2c2nc(-c3ccc4c(c3)OC(F)(F)O4)no2)c1 [compound 19, {(S)-2-[3-(2,2-Difluoro-benzo[1,3]dioxol-5-yl)-[1,2,4]oxadiazol-5-yl]-pyrrolidin-1-yl}-(5-methyl-2-[1,2,3]triazol-2-yl-phenyl)-methanone]	–	–
7.70	7.37	CCOc1ccccc1-c1noc([C@@H]2CCCN2C(=O)c2ccc(C)cc2-n2nccn2)n1 [compound 256, {(S)-2-[3-(2-Ethoxy-phenyl)-[1,2,4]oxadiazol-5-yl]-pyrrolidin-1-yl}-(4-methyl-2-[1,2,3]triazol-2-yl-phenyl)-methanone]	–	–
8.40	7.57	COc1c(F)cccc1-c1nc([C@@H]2CCCN2C(=O)c2ccc(C)cc2-n2nccn2)no1 [compound 338, {(S)-2-[5-(3-Fluoro-2-methoxy-phenyl)-[1,2,4]oxadiazol-3-yl]-pyrrolidin-1-yl}-(4-methyl-2-[1,2,3]triazol-2-yl-phenyl)-methanone]	–	–
7.85	7.17	Cc1ccc(C(=O)N2CCC[C@H]2c2noc(-c3cccc(C)c3C)n2)c(-n2nccn2)c1 [compound 391, {(S)-2-[5-(2,3-Dimethyl-phenyl)-[1,2,4]oxadiazol-3-yl]-pyrrolidin-1-yl}-(4-methyl-2-[1,2,3]triazol-2-yl-phenyl)-methanone]	–	–
6.46	6.09	O=C(c1ccc(F)cc1-n1cccn1)N1CCC[C@H]1c1nc(-c2ccccc2OC(F)(F)F)no1 [compound 162, (4-Fluoro-2-pyrazol-1-yl-phenyl)-{(S)-2-[3-(2-trifluoromethoxy-phenyl)-[1,2,4]oxadiazol-5-yl]-pyrrolidin-1-yl}-methanone]	–	–
5.46	< 5.18	COc1ccc(-c2nnc([C@@H]3CCCN3C(=O)c3cc(C)ccc3-n3nccn3)[nH]2)cc1 [compound 514, {(S)-2-[5-(4-Methoxy-phenyl)-4H-[1,2,4]triazol-3-yl]-pyrrolidin-1-yl}-(5-methyl-2-[1,2,3]triazol-2-yl-phenyl)-methanone]	–	–
6.14	5.86	Cc1ccc(-n2nccn2)c(C(=O)N2CCC[C@H]2c2cnc(-c3ccccc3)[nH]2)c1 [compound 519, (5-Methyl-2-[1,2,3]triazol-2-yl-phenyl)-[(S)-2-(2-phenyl-3H-imidazol-4-yl)-pyrrolidin-1-yl]-methanone]	–	–
7.85	6.95	Cc1ccc(C(=O)N2CCC[C@H]2c2noc(-c3cccc(F)c3C)n2)c(-n2nccn2)c1 [compound 337, {(S)-2-[5-(3-Fluoro-2-methyl-phenyl)-[1,2,4]oxadiazol-3-yl]-pyrrolidin-1-yl}-(4-methyl-2-[1,2,3]triazol-2-yl-phenyl)-methanone]	–	–

SMILES	pIC50 (human orexin-2 receptor; [1])	pIC50 (orexin-1; [2])	pIC50 (orexin-1)	pIC50 (human orexin-2 receptor)
Cc1cccc(-c2nc([C@@H]3CCCN3C(=O)c3ccc(Cl)cc3-n3nccn3)no2)c1C [compound 397]	8.30	–	7.07	–
Cc1cc(-n2nccn2)c(C(=O)N2CCC[C@@]2(C)c2nnc(-c3cccc(Cl)c3C)[nH]2)cc1Cl [compound 552]	8.15	8.05	–	–
COc1cc(C(=O)N2CCC[C@H]2c2noc(-c3cccc(OC)c3C)n2)c(-n2nccn2)cc1Cl [compound 355]	8.10	6.73	–	–
Cc1cc(-n2nccn2)c(C(=O)N2CCC[C@H]2c2nc(-c3cccc(Cl)c3C)no2)cc1Cl [compound 293]	8.00	7.49	–	–
Cc1ccc(-n2nccn2)c(C(=O)N2CCC[C@H]2c2ncc(-c3cccc(Cl)c3)[nH]2)c1 [compound 523]	6.99	6.37	–	–
COc1cc(C(=O)N2CCC[C@H]2c2nc(-c3cccc(Cl)c3C)no2)c(-n2nccn2)cc1C [compound 103]	8.70	7.52	–	–
Cc1c(Cl)cccc1-c1noc([C@@H]2CCCN2C(=O)c2ccc(F)cc2-n2cccn2)n1 [compound 111]	6.58	5.94	–	–
COc1cc(C(=O)N2CCC[C@H]2c2nnc(-c3ccccc3OC)[nH]2)c(-n2nccn2)cc1Cl [compound 467]	8.00	7.20	–	–
Cc1c(F)cccc1-c1nc([C@@H]2CCCN2C(=O)c2cc(Cl)ccc2-n2nccn2)no1 [compound 342]	–	6.82	–	7.89
COc1cccc(-c2nccnc2C(=O)N2CCC[C@H]2c2nc(-c3cccc(Cl)c3C)no2)c1 [compound 128]	6.74	–	6.70	–
COc1cc(C(=O)N2CCC[C@H]2c2nnc(-c3cccc(F)c3OC)[nH]2)c(-n2nccn2)cc1Cl [compound 472]	8.70	7.72	–	–
COc1c(F)cccc1-c1nnc([C@@H]2CCCN2C(=O)c2ccc(Cl)cc2-n2nccn2)[nH]1 [compound 476]	8.52	7.57	–	–
CCOc1c(F)cccc1-c1nc([C@@H]2CCCN2C(=O)c2cc(Cl)c(C)cc2-n2nccn2)no1 [compound 366]	8.52	8.30	–	–
